# Calls of active or inactive are those of the source. The rule behind the calls is not given here.
# Target: Microphthalmia-associated transcription factor (Homo sapiens) (UniProt O75030)
# Experiment: MITF inhibitors by FRET titration, dose response, biochemical, high throughput (AID 1259375);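 note: FRET between CFP-tagged and YFP-tagged MITF protein partners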
# Conditions: FRET biochemical assay, MITF inhibition
# Sequence of Microphthalmia-associated transcription factor (Homo sapiens) (O75030 whole entry, looked up): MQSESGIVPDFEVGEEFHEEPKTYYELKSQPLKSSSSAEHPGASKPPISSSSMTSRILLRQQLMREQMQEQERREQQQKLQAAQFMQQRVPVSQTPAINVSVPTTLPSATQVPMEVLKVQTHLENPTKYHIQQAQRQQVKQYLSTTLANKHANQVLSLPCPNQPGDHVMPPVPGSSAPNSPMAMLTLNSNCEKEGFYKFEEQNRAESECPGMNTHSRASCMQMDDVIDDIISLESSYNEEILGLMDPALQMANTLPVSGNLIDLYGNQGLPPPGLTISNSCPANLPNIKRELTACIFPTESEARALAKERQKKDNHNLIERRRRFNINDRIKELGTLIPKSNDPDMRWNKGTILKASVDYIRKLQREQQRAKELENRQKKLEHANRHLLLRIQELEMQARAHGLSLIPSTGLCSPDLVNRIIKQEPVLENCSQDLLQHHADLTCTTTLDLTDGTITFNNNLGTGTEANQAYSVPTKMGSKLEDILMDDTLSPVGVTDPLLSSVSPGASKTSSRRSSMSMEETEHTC
row,Compound,IC50
1,CCOC1=CC(c2ccc3c(c2)OCO3)CC(=O)c2c(C)oc(C)c21 (stereo not given),> 6.48 µM (inactive)
2,CN1C(=O)[C@H]2CN(C(=O)NC3CCCCC3)CCN2C(=O)[C@@H]1CO,> 6.48 µM (inactive)
3,c1ccc(COc2ccc(OCCCCn3ccnc3)cc2)cc1,> 6.48 µM (inactive)
4,CN(C)[C@@H]1C(=O)C(C(=O)NCN2CCCC2)=C(O)[C@@]2(O)C(=O)C3=C(O)c4c(O)cccc4[C@@](C)(O)C3CC12 (stereo not given in full),> 6.48 µM (inactive)
5,O=C(/C=C/c1ccco1)NC(=S)Nc1ccc(Cl)c(C(=O)O)c1,> 6.48 µM (inactive)
6,CCOC(=O)Cc1[nH]nc2c1C1(C(=O)N(CC)c3ccccc31)C(C#N)=C(N)O2 (stereo not given),> 6.48 µM (inactive)
7,NCC1OC(=O)C(Oc2ccccc2)=C1Br (stereo not given),> 6.48 µM (inactive)
8,O=C(O)/C=C/c1ccc([N+](=O)[O-])o1,> 10.6 µM (inactive)
9,O=C(NC1CCCCC1)N1CCN2C(=O)[C@@H]3CSCN3C(=O)[C@H]2C1,> 6.48 µM (inactive)
10,O=C(O)c1ccc(NC2OC(CO)C(O)C2O)cc1 (stereo not given),> 5.62 µM (inactive)
11,COc1cc(-c2ccnc(N)n2)ccc1NC(=O)[C@H]1COc2ccccc2O1,> 6.48 µM (inactive)
12,Cc1cccc(N2CCN(C(=O)/C=C\C(=O)O)CC2)c1C,> 6.48 µM (inactive)
13,O=C(Nc1cc(S(=O)(=O)O)cc2cc(S(=O)(=O)O)cc(O)c12)c1ccccc1,> 6.48 µM (inactive)
14,CCS(=O)(=O)NCC(c1cccs1)S(=O)(=O)c1ccc(C)cc1 (stereo not given),> 6.6 µM (inactive)
15,O=C(COC(=O)c1cc(-c2ccco2)nc2ccccc12)NC1CC1,> 6.94 µM (inactive)
16,C=CCc1cc(Cl)ccc1OCCOCCNCCOC,> 6.48 µM (inactive)
17,C[C@H]1NC(=O)[C@H]2CN(C(=O)NCc3ccccc3)CCN2C1=O,> 6.48 µM (inactive)
18,O=C1N[C@@H](Cc2ccc(O)cc2)C(=O)N2CCN(C(=O)NCc3ccccc3)C[C@H]12,> 6.48 µM (inactive)
19,NS(=O)(=O)c1ccc(N=Cc2cc3c(cc2[N+](=O)[O-])OCO3)cc1,> 6.48 µM (inactive)
20,COc1ccc2c(c1)CC(C(=O)Nc1ccc(-c3cn[nH]c3)cc1C(=O)N(C)OC)CO2 (stereo not given),> 6.48 µM (inactive)
21,Cc1ccc(/C=C/C(=O)NCc2ccccn2)o1,> 6.48 µM (inactive)
22,Clc1ccc2c(c1)CC(c1nc(Nc3cncnc3)c3ccccc3n1)CO2 (stereo not given),> 6.48 µM (inactive)
23,O=C(O)c1cc(N/N=C/c2ccc(N3CCOCC3)s2)ccc1Cl,3.77 µM
24,O=C(/C=C/c1ccco1)NC(=S)Nc1cc(C(=O)O)ccc1Cl,3.33 µM

row,Compound,IC50
1,Cc1cc(OCCOCCN2CCNCC2)ccc1Cl,> 6.48 µM (inactive)
2,O=C1N[C@@H](CSCc2ccccc2)C(=O)N2CCN(C(=O)NCc3ccccc3)C[C@H]12,> 6.48 µM (inactive)
3,N#C/C(=C\c1ccc(-c2ccccc2C(=O)O)o1)C(=O)NCc1ccco1,> 6.48 µM (inactive)
4,O=C(NCc1ccccc1)N1CCN2C(=O)[C@H]3CCCN3C(=O)[C@H]2C1,> 6.48 µM (inactive)
5,N#CC(C#N)=C(N)/C(C#N)=C/c1ccc([N+](=O)[O-])o1,4.85 µM
6,Cc1cc(/C=C2/C=CC(=O)O2)oc1C,> 7.29 µM (inactive)
7,O=C(NNC(=S)Nc1ccccc1)C(=O)NNC(=S)Nc1ccccc1,> 6.67 µM (inactive)
8,O=C(NCCc1ccc(O)cc1)c1ccnc(-c2cccs2)c1,> 6.77 µM (inactive)
9,O=C(OC1CCCC1=O)c1ccc(N2CCCC2=O)cc1 (stereo not given),> 7.22 µM (inactive)
10,Cc1ncn(-c2ccc(N(C)c3ncc4cccc(-c5ccn[nH]5)c4n3)cc2)n1,> 6.48 µM (inactive)
11,COc1cc(OC)c(C(=O)OC2CCCC2=O)cc1OC (stereo not given),> 7.05 µM (inactive)
12,CC[C@H](C)[C@@H]1NC(=O)[C@H]2CN(C(=O)Nc3cccc(F)c3)CCN2C1=O,> 6.48 µM (inactive)
13,C[C@@H](O)[C@@H]1NC(=O)[C@H]2CN(C(=O)NC3CCCCC3)CCN2C1=O,> 6.48 µM (inactive)
14,Cc1cc(CSC(=N)N)c(O)c(C)n1,> 6.48 µM (inactive)
15,COc1ccc2c(c1)CC(c1nc(Nc3ccc4cnccc4c3)c3ccccc3n1)CO2 (stereo not given),> 6.48 µM (inactive)
16,O=C1OC(c2ccc(Cl)cc2Cl)=N/C1=C\c1ccc([N+](=O)[O-])o1,> 6.05 µM (inactive)
17,O=S(=O)(O)c1cc(S(=O)(=O)O)c2cc(O)c(S(=O)(=O)O)cc2c1,> 6.48 µM (inactive)
18,COc1ccc2c(c1)C1NC(=S)N(c3cccc(C)c3)C(C)(O2)C1C(=O)Nc1ccc(C)cc1C (stereo not given),> 5.71 µM (inactive)
19,CN1CC(=O)N2CCN(C(=O)NC3CCCCC3)C[C@@H]2C1=O,> 6.48 µM (inactive)
20,O=C(Nc1ccc(N2CCOCC2)cc1)c1ccnc(Nc2ncccn2)c1,> 7.06 µM (inactive)
21,COc1cccc(CN2CCN(C(=O)c3ccc(F)cc3)CC2)c1,> 5.27 µM (inactive)
22,O=C(O)c1ccc(-n2cccc2)cc1Cl,> 6.48 µM (inactive)
23,O=C(COC(=O)/C=C/c1ccco1)COC(=O)/C=C/c1ccco1,> 7.07 µM (inactive)
24,CC(C)[C@@H]1NC(=O)[C@H]2CN(C(=O)NC3CCCCC3)CCN2C1=O,> 6.48 µM (inactive)

row,Compound,IC50
1,CC(C)(C)OC(=O)N1C(C(=O)O)CSC1c1cc2c(cc1[N+](=O)[O-])OCO2 (stereo not given),> 6.48 µM (inactive)
2,CN1CCN(C(=O)c2ccc(-c3nc(Nc4ccccc4)c4ncn(C5CCCCC5)c4n3)cc2)CC1,> 7.63 µM (inactive)
3,O=C(Nc1ccc(-c2cn[nH]c2)c(C(F)(F)F)c1)C1COc2ccccc2O1 (stereo not given),> 6.48 µM (inactive)
4,CN(C)c1cc(NC(=O)CNC(C)(C)C)c(O)c2c1C[C@H]1C[C@H]3[C@@H](N(C)C)C(=O)C(C(N)=O)=C(O)[C@@]3(O)C(=O)C1=C2O,> 6.48 µM (inactive)
5,C=CCNC(=O)COC(=O)c1cc(-c2ccco2)nc2ccccc12,> 6.94 µM (inactive)
6,COC(C)(C)CNC(=O)C1CCN(C2CCN(Cc3cccc(C)n3)CC2)CC1,> 6.48 µM (inactive)
7,Brc1c(OCCN2CCNCC2)ccc2ccccc12,> 6.48 µM (inactive)
8,NC(=O)COC(=O)/C=C/c1ccc(I)o1,> 7.27 µM (inactive)
9,CCn1ccnc1CN1CCN(Cc2cccc(OC)c2)C(CCO)C1 (stereo not given),> 6.48 µM (inactive)
10,C[C@@H]1NC(=O)[C@H]2CN(C(=O)NC3CCCCC3)CCN2C1=O,> 6.48 µM (inactive)
11,O=C(/C=C/c1ccco1)Nc1nnc(-c2ccco2)s1,> 6.48 µM (inactive)
12,S=c1[nH]nc(-c2cccnc2)n1/N=C/C=C/c1ccco1,> 6.48 µM (inactive)
13,CCOC(=O)C1C2NC(=S)N(CC)C1(C)Oc1ccc(Br)cc12 (stereo not given),> 6.31 µM (inactive)
14,COc1ccc(CC2NCCc3cc(OC)c(OC)cc32)cc1OC (stereo not given),0.925 µM
15,C/C(N)=C(/C#N)C(=O)COC(=O)c1c2c(nc3ccccc13)/C(=C/c1ccco1)CC2,> 6.27 µM (inactive)
16,C/C=C\C1=C(C(=O)O)N2C(=O)C(NC(=O)C(N)c3ccc(O)cc3)C2SC1 (stereo not given),> 6.48 µM (inactive)
17,Oc1ccc(CCNc2cc(-c3cccs3)ncn2)cc1,> 6.7 µM (inactive)
18,O=C1N[C@@H](CC2CCCCC2)C(=O)N2CCN(C(=O)NCc3ccccc3)C[C@H]12,> 6.48 µM (inactive)
19,COc1cc(N2CCOCC2)ccc1Nc1cc(NC(C)(C)c2ccccc2)c(C(F)(F)F)cn1,> 6.48 µM (inactive)
20,O=C(/C=C/c1ccco1)C1=C(O)C(=O)N(CCCN2CCOCC2)C1c1ccco1 (stereo not given),> 6.48 µM (inactive)
21,CCN(CC)C(=S)NC(=O)/C=C/c1ccco1,> 6.48 µM (inactive)
22,COc1ccc(CN2CCN(Cc3ccccc3OC)CC2)cc1,> 7.33 µM (inactive)
23,O=C(OC1CCOC1=O)c1ccc(S(=O)(=O)NCc2ccco2)cc1 (stereo not given),> 7.1 µM (inactive)
24,CCC(C)c1ccccc1OCCNCCN(C)C (stereo not given),> 6.48 µM (inactive)

row,Compound,IC50
1,COc1cc2cc3c(N)c(C(=O)Nc4sc(C)c(C)c4C#N)sc3nc2cc1OC,> 6.48 µM (inactive)
2,CN(C)CCNc1nc(C2COc3ccccc3O2)nc2ccc(-c3cn[nH]c3)cc12 (stereo not given),> 6.48 µM (inactive)
3,N=C1S/C(=C\c2ccco2)C(=O)N1c1nonc1N,3.61 µM
4,CCc1ccc(CN2CCN(C(C)C)CC2)cc1,> 6.89 µM (inactive)
5,CCOC(=O)N1CCC(NC(=O)CCc2nc(C3=CCN(C)CC3)no2)CC1,> 6.48 µM (inactive)
6,O=C(c1ccc([N+](=O)[O-])cc1)N1CCN(Cc2cccc3ccccc23)CC1,> 5.48 µM (inactive)
7,C/C(=N\Nc1ccc(S(=O)(=O)O)cc1)c1ccc([N+](=O)[O-])o1,> 6.48 µM (inactive)
8,CC(=O)Oc1ccccc1N1C(=O)c2ccc(Oc3cccc(N)c3)cc2C1=O,2.14 µM
9,C=CCNCCOCCOc1ccc(OCC)cc1,> 6.48 µM (inactive)
10,O=C(O)c1cccc(-n2cccc2/C=C2/NC(=O)N(c3ccc(Cl)cc3)C2=O)c1,> 6.48 µM (inactive)
11,O=C(Nc1ccc(-c2ccncc2)c(C(F)(F)F)c1)C1COc2ccccc2O1 (stereo not given),> 6.48 µM (inactive)
12,NC(=O)c1cncc(-c2cccs2)c1,> 6.5 µM (inactive)
13,CC[C@H](C)[C@@H]1NC(=O)[C@H]2CN(C(=O)NC3CCCCC3)CCN2C1=O,> 6.48 µM (inactive)
14,Cc1ccc(-c2nnc3s/c(=C\c4ccco4)c(=O)n23)cc1,> 6.48 µM (inactive)
15,CC[C@@H]1NC(=O)[C@H]2CN(C(=O)NCc3ccccc3)CCN2C1=O,> 6.48 µM (inactive)
16,O=C(NCC(c1cccs1)S(=O)(=O)c1ccc(Cl)cc1)c1ccco1 (stereo not given),> 6.55 µM (inactive)
17,O=C1N[C@@H](Cc2ccc(O)cc2)C(=O)N2CCN(C(=O)NC3CCCCC3)C[C@H]12,> 6.48 µM (inactive)
18,COc1cc(OC)c(CN2CCCC(O)C2)cc1Br (stereo not given),> 6.48 µM (inactive)
19,O=C(O)c1ccc(CNC(=O)c2cocc2C(=O)O)o1,> 7.32 µM (inactive)
20,COc1ccc2c(c1)CC(C(=O)Nc1ccc(-c3cn[nH]c3)cc1OCc1ccccc1)CO2 (stereo not given),> 6.48 µM (inactive)
21,O=C(O)c1cc(S(=O)(=O)Nc2ccc(-n3cnnn3)cc2)ccc1O,> 7.18 µM (inactive)
22,O=C(C1CCC(Nc2nccc(-c3ccc4nc(C5CC5)[nH]c(=O)c4c3)n2)CC1)N1CCCC1 (stereo not given),> 6.48 µM (inactive)
23,COCCCNC(=O)/C(C#N)=C/c1ccc(-c2ccc(C(=O)O)c(Cl)c2)o1,> 6.48 µM (inactive)
